{"source": "paper PMC4686731", "about": "“Screening of Pharmacologically Active Small Molecule Compounds Identifies Antifungal Agents Against Candida Biofilms” (Frontiers in Microbiology, 2015)", "key": {"[1]": {"test_system": "human gingival fibroblast (hGF) cells", "assay": "Cytotoxicity, WST-1 cell counting assay", "experimental": "Primary human gingival fibroblast (hGF) cultures were established from discarded healthy gingival tissues after surgery with the informed consent of the donors ([Nikawa et al., 2006]). In brief, the gingival tissue specimens were treated overnight with 0.025% trypsin and 0.02% EDTA at 4°C. After trypsin neutralization, the lamina propria mucosae were separated from the epithelial layer and minced into pieces in a plastic tissue culture dish, and then maintained in Dulbecco’s modified Eagle medium (Nacalai Tesque, Kyoto, Japan) supplemented with 10% FBS, 100 U/mL penicillin, […] and 250 ng/mL amphotericin B (Nacalai Tesque, Kyoto, Japan). After the fibroblasts had migrated out of the tissue, the tissues were removed and the cells were cultured until they reached confluence. The cells were then seeded onto 96-well tissue culture plates (500 cells per well) and the culture medium was exchanged with fresh growth medium containing the hit compounds (0.98–1000 μM). The cells were cultured continuously and the culture medium containing the hit compounds was renewed every other day. The number of cells was evaluated using the WST-1 cell counting assay (Dojindo Laboratories, Kumamoto, Japan), as described previously ([Hamada et al., 2007]). […] All the experiments were performed using three samples for each condition in triplicate.\nTo evaluate the safety for clinical use, we tested the cytotoxic effects of the hit compounds using human cell cultures. We used hGF cells because of their ubiquitous nature and their widespread use in cytotoxicity testing ([Egusa et al., 2009]; [LaFleur et al., 2011]). The hGF cells were grown in 96-well plates and exposed to increasing doses (two-fold increments) of each hit compound for 4 days. The hGF metabolic activity was measured every other day and used as an indicator of cell viability."}, "Candida biofilms": {"test_system": "Candida biofilms", "assay": "AST, biofilm mode, all Candida strains", "type": "cell-based", "conditions": "all six strains", "experimental": "The in vitro susceptibility of well-characterized wild-type C. albicans strain SC5314, which was provided by Prof. N.A.R. Gow (University of Aberdeen, Aberdeen, UK) was tested against 1280 compounds from the Library of Pharmacologically Active Compounds (LOPAC^1280TM, Sigma–Aldrich, USA). The screen was performed with C. albicans SC5314, and hits were further confirmed with the type strains C. dubliniensis MYA 577, C. glabrata ATCC 2001, C. kusei ATCC 6258, C. palapsilosis ATCC 22019, and C. tropicalis ATCC13803.\nTo investigate the antifungal effects of the hit compounds, ASTs were conducted using broth microdilution assays with high cell densities of the planktonic mode, adhesion phase and biofilm mode against Candida strains (C. albicans, C. dubliniensis, C. glabrata, C. kusei, C. palapsilosis, and C. tropicalis). First, high density cell (1 × 10^7 cells/mL) suspensions were added to the RPMI medium containing each hit compound (10–1000 μM) in 96-well plates and incubated at 37°C for 24 h. Next, the 50% minimum inhibitory concentrations (MICs) of high-density Candida planktonic cultures were determined using the CellTiter-Glo luminescent cell viability kit, as described above. The antifungal effects of the hit compounds were also evaluated in the adhesion phase and the biofilm mode, in the same manner as the planktonic mode. Candida biofilms were produced as described previously ([Jin et al., 2004]). In brief, Candida cells were grown on SDA at 37°C for 18 h. A loopful of the yeast culture was then inoculated into yeast nitrogen base (YNB) (Difco, USA) medium supplemented with 50 mM glucose. After overnight broth culture in a rotary shaker at 75 rpm, the cells were washed twice with 20 mL of PBS (pH 7.2, 0.1 M). The yeast cells were re-suspended in YNB supplemented with 100 mM glucose and adjusted to an optical density of 0.38 (1 × 10^7 cells/mL) at 520 nm. This standardized cell suspension was used immediately to form biofilms in the wells of 96-well polystyrene culture plates (Iwaki, Tokyo, Japan). First, the cells were incubated for 90 min at 37°C in a shaker at 75 rpm to allow yeast adherence to the well surface (adhesion phase), before the medium was aspirated and each well was washed once with PBS to remove non-adherent cells. YNB containing 100 mM glucose was then pipetted into each well and the plate was incubated at 37°C in a shaker at 75 rpm for 24 h. Non-adherent cells were removed by pipetting and the biofilms were washed twice with PBS. Following this biofilm growth phase, microscopic examination of the cultures was performed to exclude contamination. These ASTs were repeated on three different occasions."}, "[2]": {"conditions": "hGF cells, 4 days exposure, 50% reduction in cell number, WST-1"}}, "note": "Read-outs that look alike come from different tables or passages of the source."}
{"smiles": "C[n+]1cc2c3c(ccc2c2ccc4cc5c(cc4c21)OCO5)OCO3", "note": "[Sanguinarine, Sanguinarine chloride hydrate]", "values": [{"measurement": "cytotoxicity to hGF cells (in words)", "setting": "[1]; hGF cells", "result": "cytotoxic to hGF cells at low concentrations"}, {"measurement": "Cytotoxic concentration", "setting": "[1]; [2]", "result": 0.73, "unit": "µM"}, {"measurement": "concentration that inhibited the metabolic activity of Candida biofilms", "setting": "Candida biofilms; listed as Sanguinarine chloride hydrate", "result": "< 31.3", "unit": "µM"}, {"measurement": "concentration that inhibited the metabolic activity of Candida biofilms", "setting": "Candida biofilms; listed as sanguinarine chloride hydrate", "result": "below 500 μM"}]}
{"smiles": "Cc1c2ccncc2c(C)c2c1[nH]c1ccccc12", "note": "[Ellipticine]", "values": [{"measurement": "cytotoxicity to hGF cells (in words)", "setting": "[1]; hGF cells", "result": "cytotoxic to hGF cells at low concentrations"}, {"measurement": "Cytotoxic concentration", "setting": "[1]; [2]", "result": 1.95, "unit": "µM"}, {"measurement": "concentration that inhibited the metabolic activity of Candida biofilms", "setting": "Candida biofilms", "result": "< 500", "unit": "µM"}]}
{"smiles": "Cc1ccc(S(=O)(=O)/C=C/C#N)cc1", "note": "[Bay11-7082]", "values": [{"measurement": "cytotoxicity to hGF cells (in words)", "setting": "[1]", "result": "cytotoxic to hGF cells at low concentrations"}, {"measurement": "Cytotoxic concentration", "setting": "[1]; human, 4 days", "result": 7.81, "unit": "µM"}, {"measurement": "concentration that inhibited the metabolic activity of Candida biofilms", "setting": "Candida biofilms; listed as BAY11-7082", "result": "below 500 μM"}, {"measurement": "concentration that inhibited the metabolic activity of Candida biofilms", "setting": "Candida biofilms; listed as Bay 11-7082", "result": "< 62.5", "unit": "µM"}]}
{"smiles": "CC(C)(C)c1ccc(S(=O)(=O)/C=C/C#N)cc1", "note": "[Bay11-7085]", "values": [{"measurement": "cytotoxicity to hGF cells (in words)", "setting": "[1]; hGF cells", "result": "cytotoxic to hGF cells at low concentrations"}, {"measurement": "Cytotoxic concentration", "setting": "[1]; [2]", "result": 7.81, "unit": "µM"}, {"measurement": "concentration that inhibited the metabolic activity of Candida biofilms", "setting": "Candida biofilms; listed as BAY11-7085", "result": "below 500 μM"}, {"measurement": "concentration that inhibited the metabolic activity of Candida biofilms", "setting": "Candida biofilms; listed as Bay 11-7085", "result": "< 62.5", "unit": "µM"}]}
